Among the data in PubChem BioAssay AID493095 (Sanford-Burnham Center for Chemical Genomics, 2011) are IC50 values, retold here.

For orientation: IC50 means the midpoint of a concentration-inhibition curve.

This test in a line: cell-free peptide binding blockers, HIV fusion – biochemical, set 2, fluorescence quenching, SAR follow-up (AID 493095). Conditions: 30 min.
`O=C(O)CCCN1C(=O)/C(=C/c2ccc(-c3ccc(Cl)c(Cl)c3)o2)SC1=S`: the IC50 was 28.9 µM. `O=C(O)CCCN1C(=O)/C(=C\c2ccc(-c3ccc(Cl)cc3)o2)SC1=S`: the IC50 is 44.8 µM.

Take `O=C(O)CCCN1C(=O)/C(=C/c2ccc(-c3cccc(C(F)(F)F)c3)o2)SC1=S`: the IC50 is 5.43 µM. Under `O=C(O)CCCN1C(=O)/C(=C\c2ccc(-c3ccc(Br)cc3)o2)SC1=S` stands 3.26 µM; under `CCOC(=O)C1=C(C)N=c2sc(=Cc3ccc(OCC(=O)O)cc3)c(=O)n2C1c1ccc(F)cc1` (centres undefined), 6.28 µM; under `COc1ccccc1NS(=O)(=O)c1ccc2c(c1)C1C=CCC1C(c1ccc(C(=O)O)cc1)N2` (centres undefined), 69.1 µM. Under `CCOC(=O)C1=C(C)N=c2sc(=Cc3ccc(OCC(=O)O)cc3)c(=O)n2C1c1ccccc1` (centres undefined) stands 19.6 µM. For `O=C(O)CCC(C(=O)O)N1C(=O)/C(=C\c2ccco2)SC1=S` (centres undefined) the value was 1.38 µM; for `CCOc1ccc(-n2cccc2/C=C2/C(=N)N3C(=NC2=O)SN=C3S(C)(=O)=O)cc1`, 40.3 µM; for `CS(=O)(=O)C1=NSC2=NC(=O)/C(=C\c3cccn3-c3ccc(Br)cc3)C(=N)N21`, 5.36 µM. As to `O=C(O)CCCN1C(=O)/C(=C/c2cc3ccccc3o2)SC1=S`, the IC50 is 10.8 µM. Turning to `CS(=O)(=O)C1=NSC2=NC(=O)/C(=C\c3cccn3-c3cc(Cl)cc(Cl)c3)C(=N)N21`, the half-inhibitory concentration (IC50) was 30 µM. Consider `COc1ccc(CCn2c(O)cc3nn(-c4nc5ccccc5s4)c(=O)c-3c2C)cc1`, for which the half-maximal inhibitory concentration (IC50) was 5.6 µM. As for `CCOC(=O)C1=C(C)N=c2sc(=Cc3ccc(OCC(=O)O)cc3)c(=O)n2C1c1ccc(OC)cc1OC` (centres undefined), the IC50 was 20.2 µM.

Take `CCOC(=O)C1=C(c2ccccc2)N=c2s/c(=C\c3ccc(OCC(=O)O)cc3)c(=O)n2C1c1cccc(OC)c1` (centres undefined): the half-maximal inhibitory concentration (IC50) is 7.41 µM.

In the case of `CS(=O)(=O)C1=NSC2=NC(=O)/C(=C\c3cccn3-c3cccc(C(F)(F)F)c3)C(=N)N21`, the IC50 was 5.8 µM. Under `O=C(O)c1ccc([C@@H]2Nc3ccc(S(=O)(=O)Nc4cccc5ccccc45)cc3[C@@H]3C=CC[C@@H]32)cc1` stands 17.3 µM; under `CCOC(=O)C1=C(C)N=c2sc(=Cc3ccc(OCC(=O)O)cc3)c(=O)n2C1c1cc(OC)c(OC)c(OC)c1` (centres undefined), 7.82 µM. As to `COc1ccc(-c2ccc(/C=C3\SC(=S)N(CCCC(=O)O)C3=O)o2)cc1`, the IC50 is 12.9 µM. `CCc1ccc(-n2cccc2/C=C2/C(=N)N3C(=NC2=O)SN=C3S(C)(=O)=O)cc1`: the IC50 is 53 µM.

Regarding `CS(=O)(=O)C1=NSC2=NC(=O)/C(=C\c3cccn3-c3ccc(Cl)cc3)C(=N)N21`, the IC50 was 25.2 µM.

Take `CS(=O)(=O)C1=NSC2=NC(=O)/C(=C\c3cccn3-c3cccc(F)c3)C(=N)N21`: the IC50 is 3.71 µM. Consider `CC1=C(C(=O)OC(C)C)C(c2ccc(Cl)cc2)n2c(s/c(=C\c3ccc(OCC(=O)O)cc3)c2=O)=N1` (centres undefined), for which the IC50 is 19.1 µM. On to `CS(=O)(=O)C1=NSC2=NC(=O)/C(=C\c3cccn3-c3cccc(Cl)c3)C(=N)N21`, for which the IC50 was 9.16 µM. Regarding `Cc1c2c(=O)n(-c3nc4ccccc4s3)nc-2cc(O)n1Cc1ccccc1Cl`, the IC50 is 7.69 µM. Turning to `CCOC(=O)C1=C(C)N=c2s/c(=C\c3ccc(OCC(=O)O)cc3)c(=O)n2C1c1ccc(Cl)cc1` (centres undefined), the IC50 is 8.89 µM. For `COc1cccc(-n2cccc2/C=C2/C(=N)N3C(=NC2=O)SN=C3S(C)(=O)=O)c1` the value was 6.31 µM. Consider `COc1cccc(C2C(C(=O)Nc3ccccc3)=C(C)N=c3sc(=Cc4ccc(OCC(=O)O)cc4)c(=O)n32)c1` (centres undefined), for which the IC50 is 8.05 µM.

On to `CS(=O)(=O)C1=NSC2=NC(=O)/C(=C\c3cccn3-c3ccc(Cl)c(Cl)c3)C(=N)N21`, for which the IC50 is 6.55 µM. Under `O=C(O)CCCN1C(=O)/C(=C\c2ccc(-c3ccc(F)cc3)o2)SC1=S` stands 11.1 µM. Consider `O=C(O)c1ccc(C2Nc3ccc(S(=O)(=O)Nc4cc(Cl)ccc4Cl)cc3C3C=CCC32)cc1` (centres undefined), for which the IC50 was 48.2 µM. Take `CS(=O)(=O)C1=NSC2=NC(=O)/C(=C\c3cccn3-c3ccc(F)cc3)C(=N)N21`: the half-inhibitory concentration (IC50) is 9.41 µM. `CCOC(=O)C1=C(C)N=c2s/c(=C\c3ccc(OCC(=O)O)cc3)c(=O)n2C1c1ccc(OC)c(OCC)c1` (centres undefined): the IC50 is 22.9 µM. Turning to `O=C(O)CCCN1C(=O)/C(=C\c2ccc(-c3cccc(Cl)c3)o2)SC1=S`, the IC50 was 4.27 µM.

On to `Cc1ccc(-n2cccc2/C=C2/C(=N)N3C(=NC2=O)SN=C3S(C)(=O)=O)cc1`, for which the IC50 is 6.24 µM. Turning to `COc1ccc(-n2cccc2/C=C2/C(=N)N3C(=NC2=O)SN=C3S(C)(=O)=O)cc1Cl`, the IC50 was 12.2 µM. In the case of `O=C(O)c1ccc(C[n+]2c(-c3ccc([N+](=O)[O-])cc3)csc2Nc2ccccc2)cc1`, the IC50 was 15.4 µM. Consider `CCOC(=O)C1=C(C)N=c2sc(=Cc3ccc(OCC(=O)O)cc3)c(=O)n2C1c1ccccc1OC` (centres undefined), for which the IC50 is 31.6 µM. For `Cc1ccc(-n2cccc2/C=C2/C(=N)N3C(=NC2=O)SN=C3S(C)(=O)=O)cc1C`, the IC50 was 5.98 µM.
